Assay type in all cases: physicochemical
Series [1] can be described thus: Loading capacity (limiting organic concentration). The settings on record: 0.2 mol/L in TPH/1-octanol (95:5)%vol; 3 mol/L nitric acid. The procedure: The organic solutions were prepared and equilibrated with 3 mol/L nitric acid as detailed in the previously described sections A) and B.
Aqueous solutions of 3 mol/L nitric acid, spiked with 600 Bq of ^152Eu and 600 Bq of ^241Am, containing different amounts of stable Eu(III) (0.004 mol/L, 0.008 mol/L, 0.016 mol/L, 0.032 mol/L, 0.064 mol/L and 0.128 mol/L), obtained dissolving the corresponding amount of Eu (NO3)3·6H2O salt in 3 mol/L nitric acid, were prepared.
600 µL of equilibrated organic phase were contacted with 600 µL of aqueous phase of the corresponding concentration of Eu(III). It was stirred vigorously by means of an oscillating shaker for 15 minutes. The phases were separated by centrifugation at 5000 rpm and 400 µL of each of the phases were taken for the determination of the concentration of ^152Eu and ^241Am, as described previously in section C).
The loading capacity was determined according to the limiting organic concentration or LOC, which is the highest concentration of metal admitted by the organic phase before the third phase appears, as a result of the organic phase separating into two phases: a light or less heavy phase formed mainly by the organic solvent and a heavy phase formed by the complex formed by the extractant and the metal. […]

Series [2] can be described thus: Eu/Am selectivity factor in extraction from 3 mol/L nitric acid. The settings on record: 0.1 mol/L in TPH/1-octanol (50:50)%vol; aqueous [HNO3] 3 mol/L. The procedure: (§1) 600 µL of the organic phase of the compound to be studied, previously equilibrated, were contacted with 600 µL of aqueous phase consisting of a 3 mol/L nitric acid solution spiked with 600 Bq of ^152Eu and 600 Bq of ^241Am. It was stirred vigorously by means of an oscillating shaker for 30 minutes and the phases were separated by centrifugation at 5000 rpm. 400 µL were taken from each of the phases for determining the concentration of the radionuclides ^152Eu and ^241Am. This determination was carried out by means of the high energy gamma spectrometry technique with a high-purity Ge detector (Canberra Inc.), using the 122 keV line for the determination of ^152Eu concentration and the 59.5 keV line for the determination of ^241Am concentration. The distribution coefficient was calculated by relating the concentration of each of the radionuclides in the organic phase and in the aqueous phase, according to the expression: DM = ([M]org)/([M]aq) [formula]
The Eu/Am selectivity factor was calculated by relating the corresponding distribution coefficients of Eu with those of Am in the same experimental conditions: SFEu/Am = DEu /DAm [formula]
(§2) The distribution coefficients and the selectivity factor of each of them were determined as indicated in sections A) to C).

A further series is described as follows: Radiolytic stability. To be noted: 60Co irradiation, 4 kGy/h, up to 1000 kGy. On the procedure: (§3) The tests of stability against irradiation were carried out in the NAYADE facility at CIEMAT site, with external ^60Co sources with an approximate activity of 5000 Ci, with a homogeneous irradiation flux. The dose rate applied in all the experiments was 4 kGy/h and integrated doses of 250 kGy, 500 kGy, 750 kGy and 1000 kGy were considered. The irradiation device consists of a metal cylinder which is introduced in a rack wherein the ^60CO sources are placed radially, such that the irradiation is homogeneous. The irradiation process is carried out submersing the device in a pool of water with a depth of 4 meters.
(§4) Irradiation tests of the solid compound (in the absence of solvent) and of the compound dissolved in the "n-dodecane/1-octanol (95:5)%vol" mixture, equilibrated with 3 mol/L nitric acid, were carried out. The organic solutions were prepared and equilibrated as detailed in the previous sections A) and B).
(§5) Once each programmed integrated dose was reached, the extraction capability of the organic samples was evaluated as detailed in section C).
The irradiation of compound 4 in solid form (in the absence of solvent) and dissolved at a 0.1 mol/L concentration in the "n-dodecane/1-octanol 1 (95:5)%vol" mixture, equilibrated with 3 mol/L nitric acid, was carried out. […] After each integrated dose, the extraction capability of Am(III) and Eu(III) was evaluated as described in section C. […]

Series [3] can be described thus: Radiolytic stability, extraction capability after irradiation. The settings on record: for DEu / DAm: after 1000 kGy. On the procedure:
as §3, §4, §5
The irradiation of compound 4 in solid form (in the absence of solvent) and dissolved at a 0.1 mol/L concentration in the "n-dodecane/1-octanol 1 (95:5)%vol" mixture, equilibrated with 3 mol/L nitric acid, was carried out. The applied dose rate was 4 kGy/h and the considered integrated doses were 250 kGy, 500 kGy, 750 kGy and 1000 kGy. After each integrated dose, the extraction capability of Am(III) and Eu(III) was evaluated as described in section C.
The considered integrated doses in this experiment were 500 kGy and 1000 kGy at a dose rate of 4 kGy/h.

Series [4] in a line: Extraction capability from aqueous 3 mol/L nitric acid. To be noted: 0.1 mol/L in TPH/1-octanol (50:50)%vol; aqueous [HNO3] 3 mol/L spiked with 152Eu(III) and 241Am(III). On the procedure:
The organic solutions of the extractant compounds to be tested were prepared dissolving an amount of the extractant compound in the solvent considered in each case to reach the ligand concentration of 0.1 mol/L. The solvents considered were 1-octanol, n-heptane, n-dodecane, the industrial solvent "TPH" (hydrogenated tetrapropylene) used in the "La Hague" reprocessing plant of the COGEMA company (Compagnie générale des matières nucléaires) and different mixtures "TPH/1-octanol or n-dodecane/1-octanol".
Once said solution was obtained, its equilibration was carried out. To that end, 800 µL of the organic solution of the compound to be studied were contacted with 800 µL of nitric acid of 3 mol/L concentration and it was stirred vigorously in an oscillating shaker for 5 minutes. The phases were separated by centrifugation at 5000 rpm. 800 µL of the said organic phase were again contacted with 800 µL of nitric acid of 3 mol/L concentration for another 5 minutes of vigorous shaking. The phases were separated by centrifugation, the organic phase being considered to be equilibrated.
as §1, §2

Setting [5] is: irradiated dissolved in n-dodecane/1-octanol (95:5)%vol, equilibrated with 3 mol/L nitric acid.
[6] abbreviates: irradiated in the absence of solvent.

Take “2-Dioctylcarbamoylmethoxy-N-[3-[3-(2-dioctylcarbamoyl-methoxyacetylamino)propoxy]propyl]acetamide [Compound 18]”: the LOCEu in series [1] is on record as ~ 0.06 mol/L. In series [2], this substance yielded an SFEu/Am of 6.0. In the series “Radiolytic stability”, the stability against radiolysis entry was “very stable against radiolysis”. Besides, the DEu in series [3] (setting [5]) came to 964; in series [4], 177. In series [3] (up to 1000 kGy, irradiated dissolved in n-dodecane/1-octanol (95:5)%vol, equilibrated with 3 mol/L nitric acid), this substance showed a Dn of 531. The DAm in series [4] was found to be 29.

Consider “2-Dioctylcarbamoylmethoxy-N-[3-[(2-dioctylcarbamoyl-methoxy-acetylamino)methyl]benzyl]acetamide [Compound 4]”, for which the LOCEu in series [1] is reported as ~ 0.03 mol/L. The SFEu/Am in series [2] was found to be 4.3. Further, the stability against radiolysis result in the series “Radiolytic stability” is reported as “very stable against radiolysis”. Also, the values for the DAm in series [3] (setting [5]), in series [3] (setting [6]) and in series [4] were 180, 540 and 33, respectively. Further, the DEu in series [3] (setting [5]) came to 780; in series [3] (setting [6]) it was 1000; in series [4], 141.
